Experimental data reported in patent US9643967B2, “Pyrrolo[3,2-c]pyridine derivatives as TLR inhibitors” (TAKEDA PHARMACEUTICAL COMPANY LIMITED, priority 2013, dated 2017).
Like-named read-outs stand apart in the source and are kept apart here. Values belong to the compound of their own block, whether it stands above or below them.

Target: T1, mTLR9 (Mus musculus, UniProt Q9EQU3)
T1 construct: Splenocytes isolated from male C57/BL6 mice; from tissue; host or cells: splenocytes from the spleen of male C57BL/6 mice
T1 sequence (Q9EQU3 26-1032): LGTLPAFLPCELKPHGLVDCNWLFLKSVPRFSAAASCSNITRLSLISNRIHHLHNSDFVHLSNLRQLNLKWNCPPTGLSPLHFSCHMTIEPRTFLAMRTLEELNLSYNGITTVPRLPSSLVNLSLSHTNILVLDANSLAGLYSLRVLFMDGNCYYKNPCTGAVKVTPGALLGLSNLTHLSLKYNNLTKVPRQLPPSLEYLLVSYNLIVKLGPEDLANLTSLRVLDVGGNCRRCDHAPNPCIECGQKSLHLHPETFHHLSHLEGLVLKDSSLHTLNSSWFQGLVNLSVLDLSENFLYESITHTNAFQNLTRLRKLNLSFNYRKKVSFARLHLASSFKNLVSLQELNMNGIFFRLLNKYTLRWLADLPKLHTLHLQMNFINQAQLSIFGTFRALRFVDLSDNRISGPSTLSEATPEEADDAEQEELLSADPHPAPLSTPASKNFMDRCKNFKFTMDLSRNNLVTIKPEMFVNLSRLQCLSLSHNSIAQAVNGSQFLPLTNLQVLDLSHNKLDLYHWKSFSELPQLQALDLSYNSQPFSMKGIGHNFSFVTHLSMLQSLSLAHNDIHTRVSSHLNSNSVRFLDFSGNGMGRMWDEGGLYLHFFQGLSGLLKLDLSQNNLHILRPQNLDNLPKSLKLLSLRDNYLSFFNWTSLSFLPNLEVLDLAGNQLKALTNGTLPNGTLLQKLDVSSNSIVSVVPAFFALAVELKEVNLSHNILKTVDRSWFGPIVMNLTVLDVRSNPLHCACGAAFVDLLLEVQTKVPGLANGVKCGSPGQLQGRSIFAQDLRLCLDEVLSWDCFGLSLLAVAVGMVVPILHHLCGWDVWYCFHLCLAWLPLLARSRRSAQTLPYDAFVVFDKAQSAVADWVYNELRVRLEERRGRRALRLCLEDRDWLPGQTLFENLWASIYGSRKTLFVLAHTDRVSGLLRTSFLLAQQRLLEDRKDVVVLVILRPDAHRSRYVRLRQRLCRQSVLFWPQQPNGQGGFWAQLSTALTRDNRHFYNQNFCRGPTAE
Assay: mTLR9 antagonism (IL-6 and TNF-α release assay) in mouse splenocytes, CpG ODN-2006 stimulated
Format: cell-based
Text: mTLR9 and mTLR7 Antagonism (Cytokine Release Assay) in Mouse Splenocytes
TLR7 ligand R0006 (IDT, 5′-rU*rU*rG*rU*rU*rG*rU*rU*rG*rU*rU*rG*rU*rU*rG*rU*rU*rG*rU*rU-3′ (SEQ ID NO:1)), Liposomal transfection reagent—DOTAP (Roche, Cat. No. 11202375001), TLR9 ligand CpG ODN2006 (Sequence: T*C*G*T*C*G*T*T*T*T*G*T*C*G*T*T*T*T*G*T*C*G*T*T; *=phosphorothioate (SEQ ID NO:2)) DMSO (Sigma, D2650), RPMI Powder (Sigma, R6504), Fetal Bovine Serum (Gibco, 10270), Dulbecco's Phosphate Buffered Saline (Sigma, D1408), 96 well plate (Flat bottom, Costar 3599), ELISA kit for IL-6 (EBioscience, 88-7064-77 and TNFa (EBioscience, 88-7346-88), MACS Buffer (AutoMACS Rinsing Solution (Miltenyl Biotec, 130-091-222)+0.05% BSA), RBC lysis buffer (0.85% NH4Cl), 40 μm cell strainer (BD Falcon, 352340) Method: A. Isolation of Mouse Splenocytes
Mouse spleen was isolated from C57BL6 mouse and stored in 1× chilled PBS buffer until further processed. Spleen was transferred to a sterile petriplate and chopped in to 5-6 pieces in presence of MACS buffer (100 μl) with the help of fresh surgical blade and crushed with flat plunger of a sterile syringe. A uniform suspension was prepared by passing cells through a 40 μm cell strainer. Cells were centrifuged at 450×g for 5 minutes at 4° C., supernatant was discarded and pellet dislodged gently, resuspended in 2 ml of pre-warmed (37° C.) RBC lysis buffer at room temperature with continuous gentle mixing with 1 ml pipette. Lysis buffer was neutralized with 12 ml of chilled MACS buffer and cells were passed through 40 μm cell strainer. Cell suspension was collected in 15 ml MACS buffer and centrifuged at 450×g for 5 minutes at 4° C. Pellet was resuspended in 15 ml MACS buffer and centrifuged at 400×g for 5 minutes. Cells were resuspended in 10 ml of RPMI complete medium and viability was estimated by Trypan blue method.
mTLR9 Antagonism (IL-6 and TNF-α Release Assay):
500 μM stock of CpG ODN-2006 was prepared in sterile, endotoxin-free water. Dilutions of 10× concentrations of NCEs were prepared in incomplete RPMI media, maintaining a final DMSO concentration of 0.3%. NCEs were added in a concentration range of 30 μM to 1 nM in respective wells of assay plate, assay medium containing 0.3% DMSO were added to control wells. 0.2 million splenocytes were added to all the wells and incubated at 37° C. in 5% CO2 incubator for 30 minutes. 1 μg/ml of respective agonist was added to all the wells except those were assigned as negative controls and mixed thoroughly. Incomplete RPMI was added to negative control wells and incubated overnight at 37° C./5% CO2. The plate was centrifuged at 450×g for 5 minutes at room temperature and the supernatant was collected. ELISA was performed as per manufacturer's protocol. S/B Ratio, % Activity and % Inhibition was calculated using MS Excel. IC50 and inhibition curve was generated using Graph Pad Prism.

[1] = 1 μM, IL-6 release, mouse splenocytes, read-out: mTLR9 inhibitory activity (% at 1 μM), IL-6
[2] = 1 μM, TNF-α release, mouse splenocytes, read-out: mTLR9 inhibitory activity (% at 1 μM), TNF-α

Compound: c1cc2[nH]c(CN3CCOCC3)cc2c(-c2ccc(N3CCN(C4COC4)CC3)cc2)n1 [Example A81, 4-[[4-[4-[4-(oxetan-3-yl)piperazin-1-yl]phenyl]-1H-pyrrolo[3,2-c]pyridin-2-yl]methyl]morpholine]
inhibition at 1 µM [1]: 37%
inhibition at 1 µM [2]: 20%

Compound: CC(C)N1CCN(c2ccc(-c3nccc4[nH]c(C(=O)N5CCOCC5)cc34)cc2)CC1 [Example A82, [4-[4-(4-isopropylpiperazin-1-yl)phenyl]-1H-pyrrolo[3,2-c]pyridin-2-yl]-morpholino-methanone]
inhibition at 1 µM (read-out: mTLR9 inhibitory activity (% at 1 μM), IL-6): 100%
inhibition at 1 µM (read-out: mTLR9 inhibitory activity (% at 1 μM), TNF-α): 52%

Compound: CN1CCN(c2ccc(-c3nccc4[nH]c(CCN5CCOCC5)cc34)cc2)CC1 [Example B2, 4-[2-[4-[4-(4-methylpiperazin-1-yl)phenyl]-1H-pyrrolo[3,2-c]pyridin-2-yl]ethyl]morpholine]
inhibition at 1 µM [1]: 100%
inhibition at 1 µM [2]: 95%

Compound: Cc1cc2[nH]c(CCN3CCOCC3)cc2c(-c2ccc(N3CCN(C)CC3)cc2)n1 [Example B4, 4-[2-[6-methyl-4-[4-(4-methylpiperazin-1-yl)phenyl]-1H-pyrrolo[3,2-c]pyridin-2-yl]ethyl]morpholine]
inhibition at 1 µM [2]: 100%

Compound: Cc1cc2[nH]c(CCN3CCCCC3)cc2c(-c2ccc(N3CCN(C(C)C)CC3)cc2)n1 [Example B5, 4-[4-(4-isopropylpiperazin-1-yl)phenyl]-6-methyl-2-[2-(1-piperidyl)ethyl]-1H-pyrrolo[3,2-c]pyridine]
inhibition at 1 µM [2]: 100%

Compound: Cc1cc2c(cc(CCN3CCOCC3)n2C)c(-c2ccc(N3CCN(C(C)C)CC3)cc2)n1 [Example B11, 4-[2-[4-[4-(4-isopropylpiperazin-1-yl)phenyl]-1,6-dimethyl-pyrrolo[3,2-c]pyridin-2-yl]ethyl]morpholine]
inhibition at 1 µM [1]: 100%
inhibition at 1 µM [2]: 100%

Compound: Cc1cc2c(cc(CCN3CCOCC3)n2C)c(-c2ccc(N3CCN(C(C)C)CC3)cc2F)n1 [Example B19, 4-[2-[4-[2-fluoro-4-(4-isopropylpiperazin-1-yl)phenyl]-1,6-dimethyl-pyrrolo[3,2-c]pyridin-2-yl]ethyl]morpholine]
inhibition at 1 µM [1]: 100%
inhibition at 1 µM [2]: 100%

Compound: Cc1cc2c(cc(CCN3CCOCC3)n2C)c(-c2cccc(N3CCN(C(C)C)CC3)c2)n1 [Example B21, 4-[2-[4-[3-(4-isopropylpiperazin-1-yl)phenyl]-1,6-dimethyl-pyrrolo[3,2-c]pyridin-2-yl]ethyl]morpholine]
inhibition at 1 µM [1]: 100%
inhibition at 1 µM [2]: 100%

Compound: COc1cc(-c2nc(C)cc3c2cc(CCN2CCOCC2)n3C)ccc1N1CCN(C(C)C)CC1 [Example B22, 4-[2-[4-[4-(4-isopropylpiperazin-1-yl)-3-methoxy-phenyl]-1,6-dimethyl-pyrrolo[3,2-c]pyridin-2-yl]ethyl]morpholine]
inhibition at 1 µM [1]: 100%
inhibition at 1 µM [2]: 92%

Compound: Cc1cc2c(cc(CCN3CCOCC3)n2C)c(C2CCC(N3CCN(C(C)C)CC3)CC2)n1 (stereo not shown) [Example B27, 4-[2-[4-[4-(4-isopropylpiperazin-1-yl)cyclohexyl]-1,6-dimethyl-pyrrolo[3,2-c]pyridin-2-yl]ethyl]morpholine]
inhibition at 1 µM [1]: 100%
inhibition at 1 µM [2]: 72%

Compound: Cc1cc2c(cc(CCN3CCOCC3)n2C)c(-c2ccc(C3CCN(C(C)C)CC3)cc2)n1 [Example B31, 4-[2-[4-[4-(1-isopropyl-4-piperidyl)phenyl]-1,6-dimethyl-pyrrolo[3,2-c]pyridin-2-yl]ethyl]morpholine]
inhibition at 1 µM [1]: 100%
inhibition at 1 µM [2]: 92%

Compound: CC(C)N1CCN(c2ccc(-c3nccc4[nH]c(CCCN5CCOCC5)cc34)cc2)CC1 [Example C1, 4-[3-[4-[4-(4-isopropylpiperazin-1-yl)phenyl]-1H-pyrrolo[3,2-c]pyridin-2-yl]propyl]morpholine]
inhibition at 1 µM [2]: 100%

Compound: CN1CCN(c2ccc(-c3nccc4[nH]c(CCCN5CCOCC5)cc34)cc2)CC1 [Example C2, 4-[3-[4-[4-(4-methylpiperazin-1-yl)phenyl]-1H-pyrrolo[3,2-c]pyridin-2-yl]propyl]morpholine]
inhibition at 1 µM [2]: 100%

The next lines start with the values.

inhibition at 1 µM [1]: 100%
inhibition at 1 µM [2]: 100%
Compound: CC(C)N1CCN(c2ccc(-c3nccc4[nH]c(CCN5CCOCC5)cc34)cc2)CC1 [Example B1, 4-[2-[4-[4-(4-isopropylpiperazin-1-yl)phenyl]-1H-pyrrolo[3,2-c]pyridin-2-yl]ethyl]morpholine]

inhibition at 1 µM [1]: 100%
inhibition at 1 µM [2]: 100%
Compound: Cc1cc2[nH]c(CCN3CCOCC3)cc2c(-c2ccc(N3CCN(C(C)C)CC3)cc2)n1 [Example B3, 4-[2-[4-[4-(4-isopropylpiperazin-1-yl)phenyl]-6-methyl-1H-pyrrolo[3,2-c]pyridin-2-yl]ethyl]morpholine]

inhibition at 1 µM [1]: 100%
inhibition at 1 µM [2]: 100%
Compound: Cc1nc(-c2ccc(N3CCN(C(C)C)CC3)cc2)c2cc(CCN3CCOCC3)[nH]c2c1C [Example B6, 4-[2-[4-[4-(4-isopropylpiperazin-1-yl)phenyl]-6,7-dimethyl-1H-pyrrolo[3,2-c]pyridin-2-yl]ethyl]morpholine]

inhibition at 1 µM [2]: 100%
Compound: Cc1nc(-c2ccc(N3CCN(C)CC3)cc2)c2cc(CCN3CCOCC3)[nH]c2c1C [Example B7, 4-[2-[6,7-dimethyl-4-[4-(4-methylpiperazin-1-yl)phenyl]-1H-pyrrolo[3,2-c]pyridin-2-yl]ethyl]morpholine]

inhibition at 1 µM [2]: 93%
Compound: CCN1CCN(c2ccc(-c3nc(C)c(C)c4[nH]c(CCN5CCOCC5)cc34)cc2)CC1 [Example B8, 4-[2-[4-[4-(4-ethylpiperazin-1-yl)phenyl]-6,7-dimethyl-1H-pyrrolo[3,2-c]pyridin-2-yl]ethyl]morpholine]

inhibition at 1 µM [1]: 100%
inhibition at 1 µM [2]: 100%
Compound: Cc1nc(-c2ccc(N3CCN(C(C)C)CC3)cc2)c2cc(CCN3CCCC3)[nH]c2c1C [Example B10, 4-[4-(4-isopropylpiperazin-1-yl)phenyl]-6,7-dimethyl-2-(2-pyrrolidin-1-ylethyl)-1H-pyrrolo[3,2-c]pyridine]

inhibition at 1 µM [1]: 100%
inhibition at 1 µM [2]: 100%
Compound: Cc1cc2[nH]c(CCCN3CCOCC3)cc2c(-c2ccc(N3CCN(C(C)C)CC3)cc2)n1 [Example C3, 4-[3-[4-[4-(4-isopropylpiperazin-1-yl)phenyl]-6-methyl-1H-pyrrolo[3,2-c]pyridin-2-yl]propyl]morpholine]
